Results on 37 compounds are retold here after patent publication US9115079B2, “NDM inhibitor” (priority 2011, dated 2015).

Where a name gives a salt, the structure may show the parent alone.

Sequence of NDM-1 (C7C422 29-270, looked up): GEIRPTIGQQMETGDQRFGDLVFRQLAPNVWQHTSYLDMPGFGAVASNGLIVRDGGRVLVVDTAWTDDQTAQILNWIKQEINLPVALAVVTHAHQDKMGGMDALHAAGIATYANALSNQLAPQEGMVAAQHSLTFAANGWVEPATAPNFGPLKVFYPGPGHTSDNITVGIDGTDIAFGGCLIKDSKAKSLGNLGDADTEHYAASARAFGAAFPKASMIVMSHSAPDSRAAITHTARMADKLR

This experiment has as its target NDM-1 (Klebsiella pneumoniae, UniProt C7C422). Put plainly: biochemical. As to conditions: NDM-1 2.5 nM, 100 μM imipenem as substrate, 100 μM ZnSO4, pH 7.5, 30° C. On the procedure:
Amplification was carried out by a polymerase chain reaction (PCR) with Pyrobest DNA polymerase (Takara Bio) in which a plasmid having an NDM-1 gene sequence (GenBank Accession number: FN396876) synthesized by Life Technologies Japan Ltd. (consignment synthesis) was used as a template and two primers ([…] and […]) were used. The amplified DNA fragments were digested with restriction enzymes Nco I and Xho I and were incorporated in a vector pET-28a(+) to acquire a recombinant plasmid. The plasmid was transformed into E. coli BL21(DE3) (Novagen), and the transformants thus obtained were grown to an absorbance at 600 nm of about 0.7 in 0.8 L of an SB medium (1.2% (w/v) bacto tryptone, 2.4% (w/v) yeast extract, 0.5% (v/v) glycerol, 0.072 M dipotassium hydrogenphosphate, and 0.028 M potassium dihydrogenphosphate) containing 30 μg/ml kanamycin. Isopropyl-β-D-thiogalactopyranoside was added to a final concentration of 1 mM, and induction was carried out at 20° C. overnight, followed by harvesting with a centrifuge.
50 mM HEPES (pH 7.5), 20 μg/ml BSA, 100 μM ZnSO4, 2% DMSO, and 100 μM imipenem as a substrate (these concentrations being final concentration) were added into a 1 ml quartz cell. […] A plurality of inhibitor concentrations were studied, a sigmoid curve was prepared from each inhibitory activity, and IC50 values were calculated.
A word on the IC50: it is the concentration that inhibits the measured activity by half. A lower IC50 goes with greater potency. `CC(C)/C(C(=O)O)=C(\Cc1ccc(C(=O)NCC(N)=O)cc1)C(=O)O` [Example 29, Disodium 2-[4-(2-amino-2-oxoethylcarbamoyl)benzyl]-3-isopropylmaleate] had an IC50 below 10 µM.

Turning to `CC(C)/C(C(=O)O)=C(\Cc1cccnc1)C(=O)O` [Example 23, Disodium 2-isopropyl-3-[(pyridine-3-yl)methyl]maleate], the IC50 was 30 to 100 µM. In the case of `CC(C)/C(C(=O)O)=C(/C(=O)O)C1CCCC1` [Example 15, Disodium 2-cyclopentyl-3-isopropylmaleate], the IC50 is below 10 µM. Under `CC(C)/C(C(=O)O)=C(\Cc1ccc(OC2CCNC2)cc1)C(=O)O` (stereo not shown) [Example 36, Disodium 2-isopropyl-3-[4-(pyrrolidin-3-yloxy)benzyl]maleate] stands below 10 µM; under `CC(C)/C(C(=O)O)=C(\Cc1ccc(OCCNC(=N)N)cc1)C(=O)O` [Example 37, Disodium 2-[4-(2-guanidinoethoxy)benzyl]-3-isopropyl maleate], 30 to 100 µM; under `CC/C(C(=O)O)=C(/C(=O)O)C1CCCC1` [Example 14, Disodium 2-cyclopentyl-3-ethylmaleate], below 10 µM. As for `CC(C)/C(C(=O)O)=C(/C(=O)O)C1CCOCC1` [Example 22, Disodium 3-isopropyl-2-(tetrahydropyran-4-yl)maleate], the figure is 10 to 30 µM; as for `O=C(O)/C(CCc1ccccc1)=C(/CCc1ccccc1)C(=O)O` [Example 8, Disodium 2,3-diphenethylmaleate], below 10 µM. Under `O=C(O)/C(=C(\C(=O)O)C1CCOCC1)C1CCOCC1` [Example 40, Disodium 2,3-bis(tetrahydro-2H-pyran-4-yl)maleate] stands 30 to 100 µM; under `CC(C)/C(C(=O)O)=C(\Cc1ccc(OCC(=O)O)cc1)C(=O)O` [Example 32], below 10 µM; under `CC(C)/C(C(=O)O)=C(\Cc1ccc(C(=O)O)cc1)C(=O)O` [Example 25, Trisodium 2-(4-carboxybenzyl)-3-isopropylmaleate], 10 to 30 µM.

`CC(C)/C(C(=O)O)=C(/C(=O)O)C1CCCCC1` [Example 19, Disodium 2-cyclohexyl-3-isopropylmaleate] gave an IC50 below 10 µM. In turn, `O=C(O)/C(=C(\C(=O)O)[C@H]1CC[C@@H](O)CC1)C1CCCC1` [Example 38, Disodium 2-cyclopentyl-3-(cis-4-hydroxycyclohexyl)maleate] displayed an IC50 below 10 µM. `CC(C)/C(C(=O)O)=C(/C(=O)O)C(C)C` [Example 11, Disodium 2,3-diisopropylmaleate] returned an IC50 of 10 to 30 µM.

With `CC(C)/C(C(=O)O)=C(\Cc1ccc(OCCn2ccnc2)cc1)C(=O)O` [Example 35, Disodium 2-{4-[2-(1H-imidazol-1-yl)ethoxy]benzyl}-3-isopropylmaleate], the IC50 is below 10 µM. `CC(C)/C(C(=O)O)=C(/C(=O)O)[C@H]1CC[C@@H](O)CC1` [Example 21, Disodium 2-(cis-4-hydroxycyclohexyl)-3-isopropylmaleate] yielded a half-inhibitory concentration (IC50) below 10 µM. As for `O=C(O)/C(CCc1ccccc1)=C(/Cc1ccccc1)C(=O)O` [Example 7, Disodium 2-benzyl-3-phenethylmaleate], the figure is below 10 µM; as for `COc1ccc(C/C(C(=O)O)=C(/C(=O)O)C(C)C)cc1` [Example 30, Disodium 2-isopropyl-3-(4-methoxybenzyl)maleate], below 10 µM.

For the compound `O=C(O)/C(=C(\C(=O)O)[C@H]1CC[C@@H](O)CC1)[C@H]1CC[C@@H](O)CC1` [Example 39, Disodium 2,3-bis(cis-4-hydroxycyclohexyl)maleate], the half-maximal inhibitory concentration (IC50) is below 10 µM. Compound `CC/C(C(=O)O)=C(\SC(C)C)C(=O)O` [Example 24, Disodium 3-ethyl-2-isopropylthiomaleate] showed an IC50 of 30 to 100 µM. On to `O=C(O)/C(Cc1ccccc1)=C(\C(=O)O)C1CCCC1` [Example 16, Disodium 3-benzyl-2-cyclopentylmaleate], for which the IC50 is below 10 µM. Under `C/C(C(=O)O)=C(/C(=O)O)C(C)C` [Example 9, Disodium 2-isopropyl-3-methylmaleate] stands 30 to 100 µM; under `CC(C)/C(C(=O)O)=C(\Cc1ccc(O)cc1)C(=O)O` [Example 31, Trisodium 2-(4-oxidobenzyl)-3-isopropylmaleate], 10 to 30 µM. In turn, `CC(C)/C(C(=O)O)=C(\Cc1ccc(C(=O)N2CCC(O)CC2)cc1)C(=O)O` [Example 28, Disodium 2-[4-(4-hydroxypiperidine-1-carbonyl)benzyl]-3-isopropylmaleate] returned an IC50 of 30 to 100 µM. Under `CC(C)/C(C(=O)O)=C(\Cc1ccc(OCCN)cc1)C(=O)O` [Example 34, Disodium 2-[4-(2-aminoethoxy)benzyl]-3-isopropylmaleate] stands below 10 µM; under `CC/C(C(=O)O)=C(\Cc1ccccc1)C(=O)O` [Example 4, Disodium 2-benzyl-3-ethylmaleate], 10 to 30 µM. In turn, `CC(C)/C(C(=O)O)=C(\Cc1ccc(OCC(N)=O)cc1)C(=O)O` [Example 33, Disodium 2-[4-(2-amino-2-oxoethoxy)benzyl]-3-isopropylmaleate] registered an IC50 below 10 µM. Under `CC(C)/C(C(=O)O)=C(/C(=O)O)C1Cc2ccccc2C1` [Example 18, Disodium 2-(2,3-dihydro-1H-inden-2-yl)-3-isopropylmaleate] stands below 10 µM. As for `CC(C)/C(C(=O)O)=C(\Cc1ccc(C(=O)N2CCOCC2)cc1)C(=O)O` [Example 27, Disodium 2-isopropyl-3-[4-(morpholine-1-carbonyl)benzyl]maleate], the figure is 10 to 30 µM. `CC/C(C(=O)O)=C(/C(=O)O)C(C)C` [Example 10, Disodium 3-ethyl-2-isopropylmaleate] showed an IC50 of 10 to 30 µM. Consider `CC/C(C(=O)O)=C(\Cc1ccc(O)cc1)C(=O)O` [Example 5, Disodium 3-ethyl-2-(4-hydroxybenzyl)maleate], for which the IC50 is below 10 µM. In the case of `Cc1ccccc1C/C(C(=O)O)=C(/C(=O)O)C(C)C` [Example 13, Disodium 2-isopropyl-3-(2-methylphenyl)methylmaleate], the IC50 is 10 to 30 µM. With `CC(C)/C(C(=O)O)=C(\Cc1ccccc1)C(=O)O` [Example 12, Disodium 3-benzyl-2-isopropylmaleate], the IC50 was 10 to 30 µM. For `CCC/C(C(=O)O)=C(\CCC)C(=O)O` [Example 2, Disodium 2,3-di-n-propylmaleate], the IC50 lay within 10 to 30 µM.

Compound `CC(C)/C(C(=O)O)=C(\Cc1ccc(C(N)=O)cc1)C(=O)O` [Example 26, Disodium 2-(4-carbamoylbenzyl)-3-isopropylmaleate] registered an IC50 of 10 to 30 µM. On to `O=C(O)/C(=C(\C(=O)O)C1CCCC1)C1CCCC1` [Example 17, Disodium 2,3-dicyclopentylmaleate], for which the IC50 was below 10 µM. As for `O=C(O)/C(Cc1ccccc1)=C(/Cc1ccccc1)C(=O)O` [Example 6, Disodium 2,3-dibenzylmaleate], the IC50 is below 10 µM.
